Tests used:
FimH-CRD [1] = target: T1, FimH-CRD (Escherichia coli, UniProt P08191); assay: Competitive binding assay by fluorescence polarization, assay 1 (compounds prepared by manual serial dilution)
T1 construct: The first 177 amino acids of the FimH protein; thrombin tag (printed as 'fusion protein with thrombin') (cleaved yes); made in house; host or cells: bacteria (pET21b plasmid)
Procedure, shortened: (§1)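 Compounds at 0.4 nM–75 μM final (12 points, 3-fold steps, duplicate) compete with a 5 nM Alexa 647 mannoside probe for 60 nM FimH-CRD; 5 h room-temperature incubation in pH 7.0 Tris buffer with 2.5% DMSO, FP read-out, Kd from fitted curves. Assay 1 uses manual dilution, assay 2 robot-made frozen/thawed plates.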

FimH-CRD [2] = target: T1, FimH-CRD; assay: Competitive binding assay by fluorescence polarization, assay 2 (compounds prepared by robotics, plates frozen and thawed)
Procedure, shortened: as §1

T1 sequence (P08191 22-177): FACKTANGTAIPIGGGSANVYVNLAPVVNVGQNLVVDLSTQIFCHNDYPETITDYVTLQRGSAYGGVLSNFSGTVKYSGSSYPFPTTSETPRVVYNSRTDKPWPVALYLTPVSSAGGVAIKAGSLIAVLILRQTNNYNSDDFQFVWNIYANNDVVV

Compound	Kd (FimH-CRD [1]) [nM]	Kd (FimH-CRD [2]) [nM]	IC50 (FimH-CRD [1]) [nM]
CCCCNC(=O)c1cccc([C@H]2O[C@H](CO)[C@@H](O)[C@H](O)[C@@H]2O)c1 [Compound 38, N-butyl-3-((2R,3S,4R,5S,6R)-3,4,5-trihydroxy-6-(hydroxymethyl)tetrahydro-2H-pyran-2-yl)benzamide]	50.4 ± 3.6	72.4 ± 34.8	
CNC(=O)c1cc(C(=O)NC)cc(-c2ccccc2[C@H]2O[C@H](CO)[C@@H](O)[C@H](O)[C@@H]2O)c1 [Compound 40, N^3,N^5-dimethyl-2′-((2R,3S,4R,5S,6R)-3,4,5-trihydroxy-6-(hydroxymethyl)tetrahydro-2H-pyran-2-yl)-[1,1′-biphenyl]-3,5-dicarboxamide]	474 ± 49.5	447 ± 490	2050
COc1cccc([C@H]2O[C@H](CO)[C@@H](O)[C@H](O)[C@@H]2O)c1 [Compound 44, (2R,3S,4R,5S,6R)-2-(hydroxymethyl)-6-(3-methoxyphenyl)tetrahydropyran-3,4,5-triol]	41.8 ± 11.6	50.4 ± 10.1	156
Cc1nnc(-c2ccc(-c3cccc([C@H]4O[C@H](CO)[C@@H](O)[C@H](O)[C@@H]4O)c3)cc2)o1 [Compound 48, (2R,3S,4R,5S,6R)-2-(hydroxymethyl)-6-[3-[4-(5-methyl-1,3,4-oxadiazol-2-yl)phenyl]phenyl]tetrahydropyran-3,4,5-triol]	< 5	8.5 ± 1.3	34
COC(=O)c1cc(Oc2ccc([C@H]3O[C@H](CO)[C@@H](O)[C@H](O)[C@@H]3O)cc2)cc(C(=O)OC)c1 [Compound 53, dimethyl 5-(4-((2R,3S,4R,5S,6R)-3,4,5-trihydroxy-6-(hydroxymethyl)tetrahydro-2H-pyran-2-yl)phenoxy)isophthalate]	< 5	15.7 ± 10.2	25
COC(=O)c1ccc(Oc2ccc([C@H]3O[C@H](CO)[C@@H](O)[C@H](O)[C@@H]3O)cc2)cc1 [Compound 54, methyl 4-(4-((2R,3S,4R,5S,6R)-3,4,5-trihydroxy-6-(hydroxymethyl)tetrahydro-2H-pyran-2-yl)phenoxy)benzoate]	< 5	13.2 ± 9.2	16
Cc1nnc(-c2ccc(Oc3cccc([C@H]4O[C@H](CO)[C@@H](O)[C@H](O)[C@@H]4O)c3)cc2)o1 [Compound 60, (2R,3S,4R,5S,6R)-2-(hydroxymethyl)-6-[3-[4-(5-methyl-1,3,4-oxadiazol-2-yl)phenoxy]phenyl]tetrahydropyran-3,4,5-triol]	8.7 ± 2.1	10.7 ± 5.3	31
COC(=O)c1cc(C(=O)OC)cc(-c2cccc([C@H]3O[C@H](CO)[C@@H](O)[C@H](O)[C@@H]3O)c2)c1 [Compound 62, Dimethyl 3′-((2R,3S,4R,5S,6R)-3,4,5-trihydroxy-6-(hydroxymethyl)tetrahydro-2H-pyran-2-yl)-[1,1′-biphenyl]-3,5-dicarboxylate]	5.5 ± 0.4	7.6 ± 2	
CNC(=O)c1cc(Oc2cccc([C@H]3O[C@H](CO)[C@@H](O)[C@H](O)[C@@H]3O)c2)cc(C(=O)NC)c1 [Compound 64, N1,N3-dimethyl-5-(3-((2R,3S,4R,5S,6R)-3,4,5-trihydroxy-6-(hydroxymethyl)tetrahydro-2H-pyran-2-yl)phenoxy)isophthalamide]	15 ± 2.6	20.7 ± 16.8	55
OC[C@H]1O[C@H](c2cc(O)ccc2Cl)[C@@H](O)[C@@H](O)[C@@H]1O [Compound 68, (2R,3S,4R,5S,6R)-2-(2-chloro-5-hydroxyphenyl)-6-(hydroxymethyl)tetrahydro-2H-pyran-3,4,5-triol]	22.1 ± 10.1	35 ± 21.2	22
OC[C@H]1O[C@H](c2cccc(-c3cc(Cl)cc(Cl)c3)c2)[C@@H](O)[C@@H](O)[C@@H]1O [Compound 79, (2R,3S,4R,5S,6R)-2-[3-(3,5-Dichlorophenyl)phenyl]-6-(hydroxymethyl)tetrahydropyran-3,4,5-triol]	< 5	12.8 ± 0.9	
